Measurements taken from US11578087B2, “Oxaborole esters and uses thereof” (priority 2016, dated 2023).

Experiments:
[1] = test system: IL3000 T. congolense (drug sensitive) strain; experiment: In vitro Alamar Blue 72 h drug sensitivity assay for T. congolense; type: cell-based, Trypanosoma congolense; details: Trypanosoma congolense, 72 h, bloodstream form, 69 h + 3 h Resazurin, 34° C., read-out: IC50: I Org. Growth T. congolense 3 d
In short: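 IC50 values derive from 11-point curves averaged over at least three independent runs, with fluorescence read at 536 nm excitation and 588 nm emission. Resazurin was added for a final 3 h after 69 h compound exposure of bloodstream forms (HMI medium, 20% bovine serum, 34° C, 5% CO2).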

[2] = test system: T. cruzi amastigote (Td Tomato-modified) in Vero cells; experiment: In vitro IC50 measurement of T. cruzi amastigote killing using Td Tomato-modified T. cruzi; type: cell-based; details: Trypanosoma cruzi, 72 h, fluorescence, read-out: IC50: I Org. amastigote Growth T. cruzi 3 d
In short: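 IC50/IC90 came from nonlinear regression of Day 3 minus Day 0 fluorescence (544/612 nm), correcting for input parasites. Final compound concentrations spanned 5 nM–5 uM on Td Tomato T. cruzi-infected Vero cells, 72 h at 37 °C.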

| SMILES | IC50 [1] [nM] | IC50 [2] [nM] |
| --- | --- | --- |
| Cc1c(C(=O)N[C@H](C(=O)OCc2ccc(OCCN3CCCC3)c(Cl)c2)C(C)C)ccc2c1B(O)OC2 [Example 6-243, 3-Chloro-4-(2-(pyrrolidin-1-yl)ethoxy)benzyl (1-hydroxy-7-methyl-1,3-dihydrobenzo[c][1,2]oxaborole-6-carbonyl)-L-valinate] | 0.51 to 9.99 | 21 to 999 |
| Cc1c(C(=O)N[C@H](C(=O)OCCN2CCCC2)C(C)C)ccc2c1B(O)OC2 [Example 6-095, 2-(Pyrrolidin-1-yl)ethyl (1-hydroxy-7-methyl-1,3-dihydrobenzo[c][1,2]oxaborole-6-carbonyl)-L-valinate] | 0.51 to 9.99 | ≥ 1000 |
| CC(C)[C@H](NC(=O)c1ccc2c(c1)B(O)OC2)C(=O)O[C@@H](C)c1ccccc1 [Example 6-023, (S)-1-Phenylethyl (1-hydroxy-1,3-dihydrobenzo[c][1,2]oxaborole-6-carbonyl)-L-valinate] | 10 to 5000 | ≥ 1000 |
| Cc1c(C(=O)N[C@H](C(=O)OC2COC2)C(C)C)ccc2c1B(O)OC2 [Example 6-135, Oxetan-3-yl (1-hydroxy-7-methyl-1,3-dihydrobenzo[c][1,2]oxaborole-6-carbonyl)-L-valinate] | < 0.5 | 21 to 999 |
| Cc1c(C(=O)N[C@H](C(=O)O[C@@H]2CCOC2)C(C)C)ccc2c1B(O)OC2 [Example 6-141, (R)-Tetrahydrofuran-3-yl (1-hydroxy-7-methyl-1,3-dihydrobenzo[c][1,2]oxaborole-6-carbonyl)-L-valinate] | < 0.5 | 21 to 999 |
| CC(C)c1c(C(=O)N[C@H](C(=O)OCc2ccccc2)C(C)C)ccc2c1B(O)OC2 [Example 6-063, Benzyl (1-hydroxy-7-isopropyl-1,3-dihydrobenzo[c][1,2]oxaborole-6-carbonyl)-L-valinate] | 0.51 to 9.99 | ≥ 1000 |
| Cc1c(C(=O)N[C@H](C(=O)OCc2c[nH]cn2)C(C)C)ccc2c1B(O)OC2 [Example 6-138, (1H-Imidazol-4-yl)methyl (1-hydroxy-7-methyl-1,3-dihydrobenzo[c][1,2]oxaborole-6-carbonyl)-L-valinate] | 10 to 5000 | ≥ 1000 |
| CC(C)[C@H](NC(=O)c1ccc2c(c1)B(O)OC2(C)C)C(=O)OCc1ccc(F)cc1 [Example 6-033, 4-Fluorobenzyl (1-hydroxy-3,3-dimethyl-1,3-dihydrobenzo[c][1,2]oxaborole-6-carbonyl)-L-valinate] | 10 to 5000 | ≥ 1000 |
| CC(C)[C@H](NC(=O)c1ccc2c(c1)B(O)OC2)C(=O)OCc1ccccc1 [Example 6-005, Benzyl (1-hydroxy-1,3-dihydrobenzo[c][1,2]oxaborole-6-carbonyl)-L-valinate] | 0.51 to 9.99 | 21 to 999 |
| Cc1c(C(=O)N[C@H](C(=O)OC2CCOCC2)C(C)C)ccc2c1B(O)OC2 [Example 6-134, Tetrahydro-2H-pyran-4-yl (1-hydroxy-7-methyl-1,3-dihydrobenzo[c][1,2]oxaborole-6-carbonyl)-L-valinate] | < 0.5 | ≤ 20 |
| Cc1c(C(=O)N[C@H](C(=O)OCc2ccccc2)C(C)C)ccc2c1B(O)OC2 [Example 6-038, Benzyl (1-hydroxy-7-methyl-1,3-dihydrobenzo[c][1,2]oxaborole-6-carbonyl)-L-valinate] | < 0.5 | ≤ 20 |
| Cc1c(C(=O)N[C@H](C(=O)OCc2ccncc2)C(C)C)ccc2c1B(O)OC2 [Example 6-190, Pyridin-4-ylmethyl (1-hydroxy-7-methyl-1,3-dihydrobenzo[c][1,2]oxaborole-6-carbonyl)-L-valinate] | 0.51 to 9.99 | 21 to 999 |
| Cc1c(C(=O)N[C@H](C(=O)OCC(C)N2CCOCC2)C(C)C)ccc2c1B(O)OC2 (stereo partly drawn) [Example 6-207, 2-morpholinopropyl (1-hydroxy-7-methyl-1,3-dihydrobenzo[c][1,2]oxaborole-6-carbonyl)-L-valinate] | 0.51 to 9.99 | 21 to 999 |
| Cc1c(C(=O)N[C@H](C(=O)OCc2ccc(F)cc2)C2CCCC2)ccc2c1B(O)OC2 [Example 6-060, 4-Fluorobenzyl (S)-2-cyclopentyl-2-(1-hydroxy-7-methyl-1,3-dihydrobenzo[c][1,2]oxaborole-6-carboxamido)acetate] | 0.51 to 9.99 | 21 to 999 |
| CC(C)[C@H](NC(=O)c1ccc2c(c1)B(O)OC2)C(=O)O[C@H](C)c1ccccc1 [Example 6-020, (R)-1-Phenylethyl (1-hydroxy-1,3-dihydrobenzo[c][1,2]oxaborole-6-carbonyl)-L-valinate] | 10 to 5000 | ≥ 1000 |
| CC(C)[C@H](NC(=O)c1ccc2c(c1C(F)(F)F)B(O)OC2)C(=O)OCc1ccccc1 [Example 6-071, Benzyl (1-hydroxy-7-(trifluoromethyl)-1,3-dihydrobenzo[c][1,2]oxaborole-6-carbonyl)-L-valinate] | 10 to 5000 | 21 to 999 |
| NC(=O)C[C@H](NC(=O)c1ccc2c(c1)B(O)OC2)C(=O)OCc1ccccc1 [Example 6-010, Benzyl (1-hydroxy-1,3-dihydrobenzo[c][1,2]oxaborole-6-carbonyl)-L-asparaginate] | 10 to 5000 | ≥ 1000 |
| Cc1c(C(=O)N[C@H](C(=O)OCc2ccc(F)c(OCCN3CCCC3)c2)C(C)C)ccc2c1B(O)OC2 [Example 6-245, 4-Fluoro-3-(2-(pyrrolidin-1-yl)ethoxy)benzyl (1-hydroxy-7-methyl-1,3-dihydrobenzo[c][1,2]oxaborole-6-carbonyl)-L-valinate] | 0.51 to 9.99 | 21 to 999 |
| Cc1c(C(=O)N[C@H](C(=O)OCC2CCN(C)CC2)C(C)C)ccc2c1B(O)OC2 [Example 6-114, (1-Methylpiperidin-4-yl)methyl (1-hydroxy-7-methyl-1,3-dihydrobenzo[c][1,2]oxaborole-6-carbonyl)-L-valinate] | 0.51 to 9.99 | 21 to 999 |
| CC(C)(C)[C@H](NC(=O)c1ccc2c(c1)B(O)OC2)C(=O)OCc1ccccc1 [Example 6-017, Benzyl (S)-2-(1-hydroxy-1,3-dihydrobenzo[c][1,2]oxaborole-6-carboxamido)-3,3-dimethylbutanoate] | 10 to 5000 | ≥ 1000 |
| Cc1c(C(=O)N[C@H](C(=O)OC2CCC(F)(F)CC2)C(C)C)ccc2c1B(O)OC2 [Example 6-155, 4,4-Difluorocyclohexyl (1-hydroxy-7-methyl-1,3-dihydrobenzo[c][1,2]oxaborole-6-carbonyl)-L-valinate] | < 0.5 | ≤ 20 |
| Cc1c(C(=O)N[C@H](C(=O)OCc2cccc(N3CCOCC3)n2)C(C)C)ccc2c1B(O)OC2 [Example 6-197, (6-morpholinopyridin-2-yl)methyl (1-hydroxy-7-methyl-1,3-dihydrobenzo[c][1,2]oxaborole-6-carbonyl)-L-valinate] | < 0.5 | ≤ 20 |
| Cc1c(C(=O)NC2(C(=O)OCCN3CCOCC3)COC2)ccc2c1B(O)OC2 [Example 6-222, 2-morpholinoethyl 3-(1-hydroxy-7-methyl-1,3-dihydrobenzo[c][1,2]oxaborole-6-carboxamido)oxetane-3-carboxylate] | 10 to 5000 | ≥ 1000 |
| Cc1c(C(=O)N[C@H](C(=O)OCCN2CCCOCC2)C(C)C)ccc2c1B(O)OC2 [Example 6-214, 2-(1,4-oxazepan-4-yl)ethyl (1-hydroxy-7-methyl-1,3-dihydrobenzo[c][1,2]oxaborole-6-carbonyl)-L-valinate] | 0.51 to 9.99 | ≥ 1000 |
